# Source: patent publication US4956389A, “Compounds having calcium blocking activity” (priority 1982, dated 1990)
# Experiments:
# rats [1] = assay: Antagonistic effect to biochemical disturbances during the post-oligemic period in rats; assay type: in vivo, rat
# Protocol: Oligemia in rats is caused by simultaneous bilateral occlusion of the carotid arteries associated with a slight decrease (8-9 kPa) of blood pressure and is maintained for 60 minutes. After removal of the occlusion, the post-oligemic period is followed for several days. In this case, the observation is continued up to the third day, at the time during which the brain accumulation of Ca^++ ions reaches the maximum.
# The substances YS 035 or Nicardipine respectively, are administered to rats, 1, 5, 18, 24, 42 and 71 hours after having removed the carotid occlusion. The rats are sacrificed after 72 hours and the tissues are rapidly removed in order to determine their content of water, calcium and potassium.
# rats [2] = assay: Anti-arrythmic and antiischemic effect in rats (left coronary artery tied); assay type: in vivo, rat
# Protocol: The left coronary artery, when it is tied, induces in the anesthetized rats a precocious arrythmia (30 minutes) particularly ectopic beats, ventricular tachycardia (VT), ventricular fibrillation (VF) according to the methods of Selye 1960, Clark 1980 and Parratt 1982.
smiles,measurement,setting,value
"COc1ccc(CCN(C)CCc2ccc(OC)c(OC)c2)cc1OC [YS 035, N-methyl-N-bis-(3,4-dimethoxy-phenyl-ethyl)amine]","Cerebral concentration, Ca++","rats [1]; 3 mg·Kg^-1 P.O. 7×, 72 h, post-oligemic controls 28.2 ± 3.22",10.7 ± 2.46 mmol·Kg^-1 of dry substance
same,"Cerebral concentration, H2O","rats [1]; 3 mg·Kg^-1 P.O. 7×, 72 h, post-oligemic controls 80.1 ± 0.37",79.0 ± 0.44%
same,"Cerebral concentration, K+","rats [1]; 3 mg·Kg^-1 P.O. 7×, 72 h, post-oligemic controls 366.2 ± 12.58",420.0 ± 11.85 mmol·Kg^-1 of dry substance
same,intracellular accumulation of Ca++ ions (in words),"rats [1]; rat, in vivo",reduce substantially
same,seriousness of the cerebral edema (in words),"rats [1]; rat, in vivo",capable of reducing the seriousness of the cerebral edema
same,% Death,rats [2]; 0.156 mg/Kg I.V.,20%
same,Latent Time Death,rats [2]; 0.156 mg/Kg I.V.,26 min
same,Latent time,rats [2]; 0.156 mg/Kg I.V.,22
same,No. ectopic beats,rats [2]; 0.156 mg/Kg I.V.,907
same,VF,rats [2]; 0.156 mg/Kg I.V.,4 s
same,VF (%),rats [2]; 0.156 mg/Kg I.V.,40%
same,VT,rats [2]; 0.156 mg/Kg I.V.,34 s
same,% Death,rats [2]; 0.625 mg/Kg I.V.,0%
same,Latent Time Death,rats [2]; 0.625 mg/Kg I.V.,> 30 min
same,Latent time,rats [2]; 0.625 mg/Kg I.V.,30
same,No. ectopic beats,rats [2]; 0.625 mg/Kg I.V.,646
same,VF,rats [2]; 0.625 mg/Kg I.V.,0 s
same,VF (%),rats [2]; 0.625 mg/Kg I.V.,0%
same,VT,rats [2]; 0.625 mg/Kg I.V.,9 s
same,% Death,rats [2]; 1.25 mg/Kg I.V.,0%
same,Latent Time Death,rats [2]; 1.25 mg/Kg I.V.,> 30 min
same,Latent time,rats [2]; 1.25 mg/Kg I.V.,30
same,No. ectopic beats,rats [2]; 1.25 mg/Kg I.V.,684
same,VF,rats [2]; 1.25 mg/Kg I.V.,0 s
same,VF (%),rats [2]; 1.25 mg/Kg I.V.,0%
same,VT,rats [2]; 1.25 mg/Kg I.V.,29 s
same,% Death,rats [2]; 2.5 mg/Kg I.V.,0%
same,Latent Time Death,rats [2]; 2.5 mg/Kg I.V.,> 30 min
same,Latent time,rats [2]; 2.5 mg/Kg I.V.,26
same,No. ectopic beats,rats [2]; 2.5 mg/Kg I.V.,725
same,VF,rats [2]; 2.5 mg/Kg I.V.,9 s
same,VF (%),rats [2]; 2.5 mg/Kg I.V.,20%
same,VT,rats [2]; 2.5 mg/Kg I.V.,34 s
same,% Death,rats [2]; 5 mg/Kg I.V.,0%
same,Latent Time Death,rats [2]; 5 mg/Kg I.V.,> 30 min
same,Latent time,rats [2]; 5 mg/Kg I.V.,21
same,No. ectopic beats,rats [2]; 5 mg/Kg I.V.,1287
same,VF,rats [2]; 5 mg/Kg I.V.,5 s
same,VF (%),rats [2]; 5 mg/Kg I.V.,50%
same,VT,rats [2]; 5 mg/Kg I.V.,62 s
same,% Death,rats [2]; 10 mg/Kg I.V.,0%
same,Latent Time Death,rats [2]; 10 mg/Kg I.V.,> 30 min
same,Latent time,rats [2]; 10 mg/Kg I.V.,30
same,No. ectopic beats,rats [2]; 10 mg/Kg I.V.,474
same,VF,rats [2]; 10 mg/Kg I.V.,0 s
same,VF (%),rats [2]; 10 mg/Kg I.V.,0%
same,VT,rats [2]; 10 mg/Kg I.V.,9 s
same,% Death,rats [2]; 20 mg/Kg I.V.,0%
same,Latent Time Death,rats [2]; 20 mg/Kg I.V.,> 30 min
same,Latent time,rats [2]; 20 mg/Kg I.V.,20
same,No. ectopic beats,rats [2]; 20 mg/Kg I.V.,777
same,VF,rats [2]; 20 mg/Kg I.V.,10 s
same,VF (%),rats [2]; 20 mg/Kg I.V.,50%
same,VT,rats [2]; 20 mg/Kg I.V.,22 s
same,dose-effect relationship (in words),"rats [2]; above 10 mg/kg, endovenous",there is a regression of the results
same,"onset of VF, VT and death (in words)","rats [2]; endovenous, between 0.625 and 10 mg/kg",prevents the onset of the most serious arrythmia such as VF and VT and the death
